According to patent US20240150293A1, “SPIROCYCLOHEXANE DERIVATIVES, PHARMACEUTICAL COMPOSITIONS CONTAINING THEM AND THEIR USES AS ANTI-APOPTOTIC INHIBITORS” (LES LABORATOIRES SERVIER, priority 2021, published 2024):

What follows are compounds tested against Mcl-1 protein (UniProtKB Q07820) (Homo sapiens (Human), UniProt Q07820) (assay: Inhibition of Mcl-1 by the fluorescence polarisation assay (Example A, Method A)). Settings: fluorescence polarization assay.
Type: binding
In short: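 Protein (5 nM) and fluorescein-tagged peptide tracer (1 nM) incubated with 11-point compound series for 2 h at room temperature in HEPES/NaCl/Tween 20 buffer, pH 7.4, 5% DMSO. Displacement read as decrease in polarisation; IC50 fitted by 4-parameter logistic, converted to Ki (cKi or eKi).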

Sequence of Mcl-1 protein (Q07820 whole entry): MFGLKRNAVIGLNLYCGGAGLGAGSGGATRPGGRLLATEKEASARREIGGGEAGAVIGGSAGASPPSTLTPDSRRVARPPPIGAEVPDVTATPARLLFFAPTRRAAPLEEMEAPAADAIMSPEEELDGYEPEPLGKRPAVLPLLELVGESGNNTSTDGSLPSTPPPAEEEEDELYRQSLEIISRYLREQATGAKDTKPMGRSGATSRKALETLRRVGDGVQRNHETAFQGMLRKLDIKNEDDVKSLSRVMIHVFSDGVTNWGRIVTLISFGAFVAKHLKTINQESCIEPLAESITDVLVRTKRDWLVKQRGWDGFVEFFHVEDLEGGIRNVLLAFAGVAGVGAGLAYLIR

| Compound | Ki [nM] |
| --- | --- |
| O=C(O)C1(Nc2cccc(Cl)c2)CCC2(CC1)c1ccccc1CC2CCCOc1ncnc2ccsc12 (stereo not shown) [Example 437, (1r,4r)-4-(3-chloroanilino)-2′-{3-[(thieno[3,2-d]pyrimidin-4-yl)oxy]propyl}-2′,3′-dihydrospiro[cyclohexane-1,1′-indene]-4-carboxylic acid] | 77.6 |
| Cc1cnccc1OCCC1=Cc2ccccc2[C@]12CC[C@@](Nc1cccc(Cl)c1)(C(=O)O)CC2 [Example 189, (1r,4r)-4-(3-chloroanilino)-2′-{2-[(3-methylpyridin-4-yl)oxy]ethyl}spiro[cyclohexane-1,1′-indene]-4-carboxylic acid] | 121 |
| O=C(O)[C@]1(Nc2cccc(Cl)c2)CC[C@@]2(CC1)c1ccccc1CC2c1cccc2c1OCC2 (single isomer, unassigned) [Example 295, (1r,4r)-4-(3-chloroanilino)-2′-(2,3-dihydro-1-benzofuran-7-yl)-2′,3′-dihydrospiro[cyclohexane-1,1′-indene]-4-carboxylic acid] | 643 |
| Cc1cc(OCCCC2Cc3ccccc3[C@]23CC[C@@](Nc2cccc(Cl)c2)(C(=O)O)CC3)ccn1 (stereo partly shown) [Example 457, (1r,4r)-4-(3-chloroanilino)-2′-{3-[(2-methylpyridin-4-yl)oxy]propyl}-2′,3′-dihydrospiro[cyclohexane-1,1′-indene]-4-carboxylic acid] | 129 |
| CN1c2ccc(/C=C/c3ccccc3)cc2[C@]2(CC[C@](Nc3cccc(Br)c3)(C(=O)O)CC2)C1=O [Example 9, (1r,4r)-4-(3-bromoanilino)-1′-methyl-2′-oxo-5′-[(E)-2-phenylethenyl]-1′,2′-dihydrospiro[cyclohexane-1,3′-indole]-4-carboxylic acid] | 4820 |
| COc1ccc(Cl)c(C2Cc3ccccc3[C@]23CC[C@@](Nc2ccccc2)(C(=O)O)CC3)c1 (single isomer, unassigned) [Example 261, (1r,4r)-4-anilino-2′-(2-chloro-5-methoxyphenyl)-2′,3′-dihydrospiro[cyclohexane-1,1′-indene]-4-carboxylic acid] | 9400 |
| O=C(O)C1(Nc2cccc(Br)c2)CCC2(CC1)c1ccccc1-c1ccccc12 [Example 117, 4-[(3-bromophenyl)amino]spiro[cyclohexane-1,9′-fluorene]-4-carboxylic acid] | 5760 |
| Cc1cc(Br)cc2c1N(C)C(=O)[C@]21CC[C@@](Nc2cccc(Br)c2)(C(=O)O)CC1 [Example 20, (1r,4r)-5′-bromo-4-(3-bromoanilino)-1′,7′-dimethyl-2′-oxo-1′,2′-dihydrospiro[cyclohexane-1,3′-indole]-4-carboxylic acid] | 25700 |
| COc1ccc(C2=Cc3ccccc3[C@]23CC[C@](Nc2cccc(Cl)c2)(C(=O)O)CC3)c(C)c1 [Example 228, (1r,4r)-4-(3-chloroanilino)-2′-(4-methoxy-2-methylphenyl)spiro[cyclohexane-1,1′-indene]-4-carboxylic acid] | 14700 |
| CCOC/C=C/C1=Cc2ccccc2[C@]12CC[C@@](Nc1cccc(Cl)c1)(C(=O)O)CC2 [Example 154, (1r,4r)-4-(3-chloroanilino)-2′-[(1E)-3-ethoxyprop-1-en-1-yl]spiro[cyclohexane-1,1′-indene]-4-carboxylic acid] | 162 |
| O=C(O)[C@]1(Nc2cccc(Cl)c2)CC[C@@]2(CC1)c1ccccc1CC2CCCCc1ccccc1 (stereo partly shown) [Example 394, (1r,4r)-4-(3-chloroanilino)-2′-(4-phenylbutyl)-2′,3′-dihydrospiro[cyclohexane-1,1′-indene]-4-carboxylic acid] | 134 |
| O=C(O)C1(Nc2cccc(Cl)c2)CCC2(C=Cc3cccnc32)CC1 (single isomer, unassigned) [Example 71, 4-(3-chloroanilino)spiro[cyclohexane-1,7′-cyclopenta[b]pyridine]-4-carboxylic acid] | 984 |
| COc1cc(OC)cc(C2=Cc3ccccc3[C@]23CC[C@@](Nc2cccc(Cl)c2)(C(=O)O)CC3)c1 [Example 308, (1s,4s)-4-(3-chloroanilino)-2′-(3,5-dimethoxyphenyl)spiro[cyclohexane-1,1′-indene]-4-carboxylic acid] | 2930 |
| O=C(O)C1(Nc2cccc(Cl)c2)CCC2(CC1)c1ccccc1CC2CCCOc1ncnc2c1CCCC2 (stereo not shown) [Example 460, (1r,4r)-4-(3-chloroanilino)-2′-{3-[(5,6,7,8-tetrahydroquinazolin-4-yl)oxy]propyl}-2′,3′-dihydrospiro[cyclohexane-1,1′-indene]-4-carboxylic acid] | 159 |
| O=C(O)[C@]1(Nc2cccc(Cl)c2)CC[C@]2(CC1)C(COCCc1cccc(F)c1)=Cc1ccccc12 [Example 412, (1s,4s)-4-(3-chloroanilino)-2′-{[2-(3-fluorophenyl)ethoxy]methyl}spiro[cyclohexane-1,1′-indene]-4-carboxylic acid] | 473 |
| O=C(O)[C@]1(Nc2cccc(Cl)c2)CC[C@@]2(CC1)c1ccccc1CC2c1ccc(Oc2ccncc2)cc1 (single isomer, unassigned) [Example 365, (1r,4r)-4-(3-chloroanilino)-2′-{4-[(pyridin-4-yl)oxy]phenyl}-2′,3′-dihydrospiro[cyclohexane-1,1′-indene]-4-carboxylic acid] | 3090 |
| O=C(O)[C@]1(Nc2cccc(Cl)c2)CC[C@@]2(CC1)c1ccccc1CC2c1cccc(Cl)c1 (single isomer, unassigned) [Example 344, (1r,4r)-4-(3-chloroanilino)-2′-(3-chlorophenyl)-2′,3′-dihydrospiro[cyclohexane-1,1′-indene]-4-carboxylic acid] | 11200 |
| O=C(O)[C@]1(Nc2cccc(Cl)c2)CC[C@]2(CC1)C(c1cccc(Cc3ccccc3)c1)=Cc1ccccc12 [Example 301, (1s,4s)-2′-(3-benzylphenyl)-4-(3-chloroanilino)spiro[cyclohexane-1,1′-indene]-4-carboxylic acid] | 491 |
| O=C(O)[C@]1(Nc2cccc(Cl)c2)CC[C@@]2(CC1)c1ccccc1C[C@@H]2c1ccc(-c2ccccc2)o1 [Example 357, (1r,2′S,4S)-4-(3-chloroanilino)-2′-(5-phenylfuran-2-yl)-2′,3′-dihydrospiro[cyclohexane-1,1′-indene]-4-carboxylic acid] | 15400 |
| COc1cccc(C2Cc3ccccc3[C@]23CC[C@@](Nc2cccc(Cl)c2)(C(=O)O)CC3)c1C (single isomer, unassigned) [Example 322, (1r,4r)-4-(3-chloroanilino)-2′-(3-methoxy-2-methylphenyl)-2′,3′-dihydrospiro[cyclohexane-1,1′-indene]-4-carboxylic acid] | 17700 |
| O=C(O)[C@]1(Nc2cccc(Cl)c2)CC[C@@]2(CC1)c1ccccc1[C@@H]1C[C@@H]12 (single isomer, unassigned) [Example 107, (1r,1′aR*,4r,6′aS*)-4-(3-chloroanilino)-1′a,6′a-dihydro-1′H-spiro[cyclohexane-1,6′-cyclopropa[a]indene]-4-carboxylic acid] | 1870 |
| O=C(O)[C@]1(Nc2cccc(Cl)c2)CC[C@@]2(CC1)c1ccccc1CC2CCCOc1ccnc2c1CCC2O (stereo partly shown) [Example 475, (1r,4r)-4-(3-chloroanilino)-2′-{3-[(7-hydroxy-6,7-dihydro-5H-cyclopenta[b]pyridin-4-yl)oxy]propyl}-2′,3′-dihydrospiro[cyclohexane-1,1′-indene]-4-carboxylic acid] | 99.2 |
